Experimental data from patent publication US8445481B2, “Scaffold-diversified pyrrolidinone derivatives and their use” (The University of Chicago, priority 2007, dated 2013).

Columns and labels:
hACC2 = target: T1, hACC2 (Homo sapiens, UniProt O00763); conditions: reference ACC inhibitor; cited from earlier work
T1 construct: expressed in transfected cells; host or cells: Saccharomyces cerevisiae

caspase-3/7 = assay: Time-dependence of caspase-3/7 activation; assay type: cell-based; conditions: HL-60 cells, time after treatment
tumor cells = assay: Sensitisation of tumor cells to 2-deoxyglucose; assay type: cell-based
Protocol: (§1) Since respiration and glycolysis are tightly coupled in eukaryotic cells, a combination of suppressors of respiration with inhibitors of glycolysis were tested for cytotoxic phenotype.

glycolysis = assay: Lactate production in cell culture medium; assay type: cell-based
Protocol: (§2) A high-throughput assay was developed for identification of new inhibitors of glycolysis. The effect of the pyrrolidinone library on intracellular ATP level of A549 cells was tested in either the presence or absence of antimycin A (inhibitor of mitochondrial electron-transport chain). […] Initial hits were further verified by evaluating their effects on lactate production. Since lactate is a toxic end-product of glycolysis effluxed to the intercellular space, treatment of cells with glycolytic inhibitors should lead to decreased levels of lactate in cell culture medium.

A549 cells [1] = assay: Cancer cell proliferation, A549; assay type: cell-based
Protocol: as §1

A549 cells [2] = assay: Intracellular ATP level of A549 cells with or without antimycin A; assay type: cell-based; conditions: presence versus absence of antimycin A (10 nM)
Protocol: as §2

U-87MG glioma cells = assay: Combination of respiration suppressor and glycolysis inhibitor, cytotoxicity; assay type: cell-based; conditions: in combination with leucascandrolide A
Protocol: as §1

CHO-K1 cells = assay: Cell proliferation, CHO-K1; assay type: cell-based
Protocol: as §1

cells = assay: Cell cycle arrest; assay type: cell-based
[3] = test system: cellular glucose consumption; assay: Cellular glucose consumption; assay type: cell-based

T1 sequence (O00763 whole entry): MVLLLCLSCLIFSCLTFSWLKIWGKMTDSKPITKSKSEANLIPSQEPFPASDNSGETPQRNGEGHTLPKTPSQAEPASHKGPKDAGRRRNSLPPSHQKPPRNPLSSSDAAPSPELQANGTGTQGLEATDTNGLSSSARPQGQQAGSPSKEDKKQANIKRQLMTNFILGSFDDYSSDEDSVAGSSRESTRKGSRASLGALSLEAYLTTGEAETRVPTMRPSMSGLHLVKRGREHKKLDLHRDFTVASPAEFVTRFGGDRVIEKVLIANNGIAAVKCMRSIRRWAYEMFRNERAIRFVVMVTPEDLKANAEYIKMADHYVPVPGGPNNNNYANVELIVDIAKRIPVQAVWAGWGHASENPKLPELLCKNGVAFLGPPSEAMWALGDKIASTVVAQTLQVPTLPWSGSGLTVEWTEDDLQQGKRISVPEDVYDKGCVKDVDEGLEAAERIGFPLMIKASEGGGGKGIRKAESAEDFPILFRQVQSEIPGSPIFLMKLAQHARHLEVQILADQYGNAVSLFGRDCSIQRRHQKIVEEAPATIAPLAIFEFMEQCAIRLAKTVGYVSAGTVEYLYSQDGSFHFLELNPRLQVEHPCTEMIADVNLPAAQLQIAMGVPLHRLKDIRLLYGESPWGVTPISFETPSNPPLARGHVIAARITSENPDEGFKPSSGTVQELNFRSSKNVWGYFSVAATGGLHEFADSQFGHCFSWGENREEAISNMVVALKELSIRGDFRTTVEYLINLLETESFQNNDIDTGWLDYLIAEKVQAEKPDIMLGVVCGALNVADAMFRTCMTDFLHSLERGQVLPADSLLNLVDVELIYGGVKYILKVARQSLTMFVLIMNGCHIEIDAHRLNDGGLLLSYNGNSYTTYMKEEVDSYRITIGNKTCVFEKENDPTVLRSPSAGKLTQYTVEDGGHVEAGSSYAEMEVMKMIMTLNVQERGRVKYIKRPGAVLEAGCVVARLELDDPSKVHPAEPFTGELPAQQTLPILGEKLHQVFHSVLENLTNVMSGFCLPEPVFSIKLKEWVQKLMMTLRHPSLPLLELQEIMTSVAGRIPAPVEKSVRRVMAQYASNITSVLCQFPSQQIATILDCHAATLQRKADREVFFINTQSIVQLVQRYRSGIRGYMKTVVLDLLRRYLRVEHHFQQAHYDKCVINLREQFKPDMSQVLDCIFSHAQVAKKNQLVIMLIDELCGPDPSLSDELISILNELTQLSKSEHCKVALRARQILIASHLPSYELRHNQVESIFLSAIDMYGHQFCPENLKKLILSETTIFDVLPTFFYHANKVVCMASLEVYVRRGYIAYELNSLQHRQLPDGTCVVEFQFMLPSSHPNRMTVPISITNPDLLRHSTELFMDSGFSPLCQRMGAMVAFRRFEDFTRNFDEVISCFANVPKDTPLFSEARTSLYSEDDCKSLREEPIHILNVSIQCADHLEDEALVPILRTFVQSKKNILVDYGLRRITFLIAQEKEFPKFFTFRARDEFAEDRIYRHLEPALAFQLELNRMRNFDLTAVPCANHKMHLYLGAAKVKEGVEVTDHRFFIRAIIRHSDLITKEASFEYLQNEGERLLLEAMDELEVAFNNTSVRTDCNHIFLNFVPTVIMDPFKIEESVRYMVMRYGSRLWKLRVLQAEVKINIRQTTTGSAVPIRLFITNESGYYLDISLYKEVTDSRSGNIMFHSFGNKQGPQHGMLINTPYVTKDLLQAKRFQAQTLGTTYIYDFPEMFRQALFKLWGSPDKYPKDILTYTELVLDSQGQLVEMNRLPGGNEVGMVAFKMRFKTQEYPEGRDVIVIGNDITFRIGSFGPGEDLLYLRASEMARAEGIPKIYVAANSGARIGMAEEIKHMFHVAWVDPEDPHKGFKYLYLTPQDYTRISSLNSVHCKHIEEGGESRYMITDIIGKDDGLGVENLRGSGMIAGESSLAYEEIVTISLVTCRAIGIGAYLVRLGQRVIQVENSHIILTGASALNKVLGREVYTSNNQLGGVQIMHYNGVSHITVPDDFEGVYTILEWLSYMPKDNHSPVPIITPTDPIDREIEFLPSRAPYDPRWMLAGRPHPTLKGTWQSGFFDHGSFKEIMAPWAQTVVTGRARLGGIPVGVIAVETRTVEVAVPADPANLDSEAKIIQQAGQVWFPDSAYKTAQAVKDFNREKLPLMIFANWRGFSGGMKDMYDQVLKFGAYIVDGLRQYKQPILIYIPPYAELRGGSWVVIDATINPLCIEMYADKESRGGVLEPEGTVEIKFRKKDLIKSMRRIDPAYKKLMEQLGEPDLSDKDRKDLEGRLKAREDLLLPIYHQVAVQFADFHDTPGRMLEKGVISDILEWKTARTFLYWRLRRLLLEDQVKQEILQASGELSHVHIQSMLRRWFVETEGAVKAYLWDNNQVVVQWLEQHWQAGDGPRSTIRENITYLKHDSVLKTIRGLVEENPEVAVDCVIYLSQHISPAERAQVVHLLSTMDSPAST

CC(C#Cc1cnc(Oc2ccc(Oc3ccccc3)cc2)s1)N(O)C(N)=O (stereo not shown) [Example A-80040]
ACC2 specificity (hACC2): certain level of ACC2 specificity

CN[C@@H]1C[C@H]2O[C@@](C)([C@@H]1OC)n1c3ccccc3c3c4c(c5c6ccccc6n2c5c31)C(=O)NC4 [staurosporine]
caspase-3/7 activation over time (caspase-3/7): increased activity between 3 and 6 hours after treatment, after which activity decreased

rhodamine 123
sensitisation of tumor cells to 2-deoxyglucose (tumor cells): hypersensitized tumor cells to treatment with 2-deoxyglucose

COC(=O)[C@@]12CCCCC=C1N(CCC1=CCCCC1)C(=O)[C@H]2CC(=O)NCc1ccc(OC)c(OC)c1 [Example P8A7]
lactate production (glycolysis): inhibited lactate production
effect on cancer cell proliferation (A549 cells [1]): cytostatic effect
suppression of ATP production (A549 cells [2]): suppressed ATP production more efficiently in the presence of antimycin A
cell death on combined treatment (U-87MG glioma cells): severe cell death
effect on cell proliferation (CHO-K1 cells): cytostatic effect
cell cycle arrest (cells): arrested cells in G1 phase

COC(=O)[C@@]12CCCCC/C=C\1N(Cc1cccc3ccccc13)C(=O)[C@H]2CC(=O)N1CCN(C(=O)c2ccco2)CC1 [Example P9E11]
cellular glucose consumption [3]: rapidly inhibited cellular glucose consumption
activity profile compared with cytochalasin B ([3]; cytochalasin B is an established inhibitor of glucose transport): essentially identical activity profile to cytochalasin B
lactate production (glycolysis): inhibited lactate production
effect on cancer cell proliferation (A549 cells [1]): cytostatic effect
suppression of ATP production (A549 cells [2]): suppressed ATP production more efficiently in the presence of antimycin A
effect on cell proliferation (CHO-K1 cells): cytostatic effect
cell cycle arrest (cells): arrested cells in G1 phase
